Assay results published in US7816409B2, “Stable pharmaceutical composition of fluoroether compound for anesthetic use method for stabilizing a fluoroether compound, use of stabilizer agent for precluding the degradation of a fluoroether compound” (Cristalia Productos Quimicos Farmaceuticos LTDA, priority 2003, dated 2010).
Values belong to the compound of their own block, whether it stands above or below them.

Key:
[1] = Stress degradation of sevoflurane with or without alumina, gas chromatography with toluene internal standard; type: physicochemical
Method: In the following examples, all analyses by gas chromatography were carried out by adding 2 μL of toluene (internal standard) in 10 mL of sample of sevoflurane in study. The analysis was done in duplicates and for each chromatogram obtained was calculated the ratio of the area of each impurity/area of toluene.
In two type III glass bottle with capacity of 100 mL, was added 20 mL of anhydrous sevoflurane and in one of the bottles was added 20 mg of alumina totalizing 1.0 mg of Al2O3 per mL of sevoflurane. Both bottles were closed with a stopper and screw metallic cap and heated in a stove at 60° C. for 22 hours. After that period, the samples were analyzed in duplicates by gas chromatography using the internal standard addition method (toluene). […] The degradation products of sevoflurane monitored by gas chromatography, HFIP, Acetal, 2, 5, 7 and 8, are present in high amounts in the samples of sevoflurane containing alumina after heating, as presented in FIG. 4.
The samples were prepared and placed in type III glass bottle and the bottles were closed with stopper and screw metallic cap.
The samples were submitted to two stress conditions by heating in stove at 60° C. for a cycle of 22 hours and other of 72 hours.
The sample was prepared to contain 0, 50, 200, 600, 1000 and 1400 ppm of the stabilizer agent. […] The study comprises put sevoflurane in contact with an acid substance, submits the samples to a stress by heating at 60° C. for 22 hours and, by comparison evaluates the chromatographic purity of sevoflurane after stress. The activated alumina was employed as acid substance in a constant quantity of 1 mg per mL of sevoflurane.
In type III glass bottle with capacity for 100 mL was transferred 20 mL of test sevoflurane containing determined quantities of the stabilizer agent (0, 50, 200, 600, 1000 and 1400 ppm) and 20 mg of alumina. The bottles were immediately closed with a stopper and a screw metallic cap. These bottles were heated in a stove at 60° C. for 22 hours. After the stress the samples were analyzed in duplicate by gas chromatography using the internal standard addition method (toluene). In parallel, studies were done with the quantity determined of the stabilizer (0, 50, 200, 600, 1000 and 1400 ppm) without alumina.
Table 2 resumes the tests realized with the agents propylene glycol and menthol proposed for the stabilization of sevoflurane against the degradation by alumina and the results for total impurity and for the single impurity HFIP obtained with and without alumina after stress at 60° C. for 22 hours. The total impurity is the sum of the ratio between the area for each impurity and the area of the internal standard (toluene) and HFIP is the ratio between the area of HFIP and the area of toluene obtained in the chromatograms.

[2] = Saturation level / solubility of stabilizer in sevoflurane
Source text: The stabilizer agent for the fluoroether compound, and most particularly for the sevoflurane, is employed in concentration ranging from 0.001% in weight in relation to the weight of sevoflurane until its level of saturation in the sevoflurane, that is, the maximum concentration in which it keeps soluble in the sevoflurane. The amount of stabilizer agent to achieve its saturation depends on the stabilizer and temperature, and can be high due to the solubility profile among these substances.
Among the appropriate polyalcohols to the stabilization of the fluoroether compound sevoflurane, propylene glycol, polyethylene glycol, hexylene glycol and 1,3-butileneglycol are chosen. […] As cited before, the amount of the stabilizer agent will range from 0.001% in weight until its saturation level in sevoflurane. […] Therefore, in a general way, the polyalcohols are preferably employed in amounts ranging from 0.001% to 5.0% in weight in relation to the weight of sevoflurane.

[3] = Chromatographic purity and impurities of sevoflurane after stress with alumina (Pharmacopeial Forum USP specifications); type: physicochemical; conditions: for degradation of sevoflurane by alumina: Example 5, 260 ppm stabilizer
Method: (§1) In this study alumina was employed in a final concentration of 1 mg per mL of sevoflurane.
(§2) Alumina was employed in a final concentration of 1 mg per mL of sevoflurane.

[4] = Limit of fluoride in sevoflurane after stress with alumina; type: physicochemical
Method: as §1
Another important factor observed in the present study is the quantity of fluoride in the sample submitted to stress.
as §2

[5] = anhydrous sevoflurane, stabilizer 0 ppm, 60° C. for 22 hours, 0 mg of Al2O3
[6] = anhydrous sevoflurane, stabilizer 0 ppm, 60° C. for 22 hours, 20 mg of Al2O3
[7] = anhydrous sevoflurane, stabilizer 50 ppm, 60° C. for 22 hours, 0 mg of Al2O3
[8] = anhydrous sevoflurane, stabilizer 50 ppm, 60° C. for 22 hours, 20 mg of Al2O3
[9] = anhydrous sevoflurane, stabilizer 200 ppm, 60° C. for 22 hours, 0 mg of Al2O3
[10] = anhydrous sevoflurane, stabilizer 200 ppm, 60° C. for 22 hours, 20 mg of Al2O3
[11] = anhydrous sevoflurane, stabilizer 600 ppm, 60° C. for 22 hours, 0 mg of Al2O3
[12] = anhydrous sevoflurane, stabilizer 600 ppm, 60° C. for 22 hours, 20 mg of Al2O3
[13] = anhydrous sevoflurane, stabilizer 1000 ppm, 60° C. for 22 hours, 0 mg of Al2O3
[14] = anhydrous sevoflurane, stabilizer 1000 ppm, 60° C. for 22 hours, 20 mg of Al2O3
[15] = anhydrous sevoflurane, stabilizer 1400 ppm, 60° C. for 22 hours, 0 mg of Al2O3
[16] = anhydrous sevoflurane, stabilizer 1400 ppm, 60° C. for 22 hours, 20 mg of Al2O3
[17] = alumina 1 mg per mL, 60° C. for 22 hours
[18] = Table 4, sevoflurane with 260 ppm stabilizer, alumina 1 mg per mL, 60° C. for 22 hours
[19] = Table 6, sevoflurane with water 260 ppm or PG + water 260:260 ppm, alumina 1 mg per mL, 60° C. for 22 hours
[20] = Table 5, sevoflurane with 260 ppm stabilizer, alumina 1 mg per mL, 60° C. for 22 hours
[21] = sevoflurane, stabilizer 50 ppm, stress at 60° C. for 12 hours, 0 mg of Al2O3
[22] = sevoflurane, stabilizer 50 ppm, stress at 60° C. for 12 hours, 20 mg of Al2O3
[23] = Table 4, initial analysis of anhydrous sevoflurane before stress
[24] = Table 6, initial analysis of anhydrous sevoflurane before stress

HFIP (average ratio area of HFIP/area of toluene) [1, 5]: 0.0408 | Total Impurity (average sum of ratios area of each impurity/area of toluene) [1, 5]: 0.3083 | HFIP (average ratio area of HFIP/area of toluene) [1, 6]: 0.8914 | Total Impurity (average sum of ratios area of each impurity/area of toluene) [1, 6]: 37.5478 | HFIP (average ratio area of HFIP/area of toluene) [1, 7]: 0.04541 | Total Impurity (average sum of ratios area of each impurity/area of toluene) [1, 7]: 0.3174 | HFIP (average ratio area of HFIP/area of toluene) [1, 8]: 0.6402 | Total Impurity (average sum of ratios area of each impurity/area of toluene) [1, 8]: 1.0412 | HFIP (average ratio area of HFIP/area of toluene) [1, 9]: 0.04228 | Total Impurity (average sum of ratios area of each impurity/area of toluene) [1, 9]: 0.2918 | HFIP (average ratio area of HFIP/area of toluene) [1, 10]: 0.5880 | Total Impurity (average sum of ratios area of each impurity/area of toluene) [1, 10]: 1.0773 | HFIP (average ratio area of HFIP/area of toluene) [1, 11]: 0.04445 | Total Impurity (average sum of ratios area of each impurity/area of toluene) [1, 11]: 0.3319 | HFIP (average ratio area of HFIP/area of toluene) [1, 12]: 0.4426 | Total Impurity (average sum of ratios area of each impurity/area of toluene) [1, 12]: 1.0001 | HFIP (average ratio area of HFIP/area of toluene) [1, 13]: 0.04669 | Total Impurity (average sum of ratios area of each impurity/area of toluene) [1, 13]: 0.3627 | HFIP (average ratio area of HFIP/area of toluene) [1, 14]: 0.3787 | Total Impurity (average sum of ratios area of each impurity/area of toluene) [1, 14]: 0.9486 | HFIP (average ratio area of HFIP/area of toluene) [1, 15]: 0.04325 | Total Impurity (average sum of ratios area of each impurity/area of toluene) [1, 15]: 0.3644 | HFIP (average ratio area of HFIP/area of toluene) [1, 16]: 0.3329 | Total Impurity (average sum of ratios area of each impurity/area of toluene) [1, 16]: 1.0156 | saturation level in sevoflurane [2]: about 6.8%
Compound: CC1CCC(C(C)C)C(O)C1 (stereo not drawn) [MENTHOL, (1 alpha, 2 beta, 5 alpha)-5-methyl-2-(1-methylethyl)cyclohexanol]

Compound: O [Water]
water content from which degradation of sevoflurane by alumina is inhibited ([1]; Example 2, alumina 1 mg per mL, 60° C.): ≥ 600 ppm | degradation of sevoflurane by alumina ([1]; Example 4, 50 ppm stabilizer, alumina 1 mg per mL): incapable to completely inhibit | increase of impurity HFIP value in relation to the sample without alumina ([1]; sevoflurane containing water, with alumina): about 10 times | degradation of sevoflurane by alumina [3, 17]: didn't inhibit the degradation | Compound A [3, 18]: 11.8 µg/g | Purity [3, 18]: 99.8944% | Single impurity [3, 18]: 403 µg/g | Total Impurity [3, 18]: 1056.1 µg/g | Purity [3, 19]: 99.8899% | Single impurity [3, 19]: 422.8 µg/g | Total impurities [3, 19]: 1101.3 µg/g | Limit of fluoride [4, 20]: 16.950 µg/mL | Limit of fluoride [4, 19]: 15.340 µg/mL

HFIP (average ratio area of HFIP/area of toluene) [1, 5]: 0.0491 | Total Impurity (average sum of ratios area of each impurity/area of toluene) [1, 5]: 0.3304 | HFIP (average ratio area of HFIP/area of toluene) [1, 6]: 0.6680 | Total Impurity (average sum of ratios area of each impurity/area of toluene) [1, 6]: 31.65 | HFIP (average ratio area of HFIP/area of toluene) [1, 7]: 0 | Total Impurity (average sum of ratios area of each impurity/area of toluene) [1, 7]: 0.3293 | HFIP (average ratio area of HFIP/area of toluene) [1, 8]: 0.05996 | Total Impurity (average sum of ratios area of each impurity/area of toluene) [1, 8]: 0.3925 | HFIP (average ratio area of HFIP/area of toluene) [1, 9]: 0.04474 | Total Impurity (average sum of ratios area of each impurity/area of toluene) [1, 9]: 0.3546 | HFIP (average ratio area of HFIP/area of toluene) [1, 10]: 0.04072 | Total Impurity (average sum of ratios area of each impurity/area of toluene) [1, 10]: 0.2823 | HFIP (average ratio area of HFIP/area of toluene) [1, 11]: 0.04694 | Total Impurity (average sum of ratios area of each impurity/area of toluene) [1, 11]: 0.2925 | HFIP (average ratio area of HFIP/area of toluene) [1, 12]: 0.04603 | Total Impurity (average sum of ratios area of each impurity/area of toluene) [1, 12]: 0.3158 | HFIP (average ratio area of HFIP/area of toluene) [1, 13]: 0.04038 | Total Impurity (average sum of ratios area of each impurity/area of toluene) [1, 13]: 0.3800 | HFIP (average ratio area of HFIP/area of toluene) [1, 14]: 0.04353 | Total Impurity (average sum of ratios area of each impurity/area of toluene) [1, 14]: 0.3189 | HFIP (average ratio area of HFIP/area of toluene) [1, 15]: 0.04159 | Total Impurity (average sum of ratios area of each impurity/area of toluene) [1, 15]: 0.3061 | HFIP (average ratio area of HFIP/area of toluene) [1, 16]: 0.04236 | Total Impurity (average sum of ratios area of each impurity/area of toluene) [1, 16]: 0.3235 | HFIP (average ratio area of HFIP/area of toluene) [1, 21]: 0.00338 | Total Impurity (average sum of ratios area of each impurity/area of toluene) [1, 21]: 0.3236 | HFIP (average ratio area of HFIP/area of toluene) [1, 22]: 0.02051 | Total Impurity (average sum of ratios area of each impurity/area of toluene) [1, 22]: 0.3963 | degradation of sevoflurane by alumina [3, 17]: didn't show any degradation | Compound A [3, 18]: 11.3 µg/g | Purity [3, 18]: 99.9774% | Single impurity [3, 18]: 61.7 µg/g | Total Impurity [3, 18]: 226.3 µg/g | Limit of fluoride [4, 20]: 0.051 µg/mL | saturation level in sevoflurane [2]: around 2.5%
Compound: CC(O)CO (centres unmarked) [Propylene glycol, 1,2-propanediol]

Compound: PEG 400
solubility in sevoflurane [2]: freely soluble

Compound A [3, 23]: 11.2 µg/g | Purity [3, 23]: 99.9798% | Single impurity [3, 23]: 63.7 µg/g | Total Impurity [3, 23]: 201.8 µg/g | Purity [3, 24]: 99.9907% | Single impurity [3, 24]: 42.1 µg/g | Total impurities [3, 24]: 93.0 µg/g | Limit of fluoride ([4]; Table 5, initial analysis of anhydrous sevoflurane before stress): 0.050 µg/mL | Limit of fluoride [4, 24]: 0.072 µg/mL
Compound: FCOC(C(F)(F)F)C(F)(F)F [Anhydrous Sevoflurane, fluoromethyl 2,2,2-trifluoro-1-(trifluoromethyl)ethyl ether]
